According to doi:10.1101/2023.07.12.548622v2 (biorxiv, 2023):

Key:
[1] = target: T1, hACKR3 (atypical chemokine receptor 3; CXCR7) (Homo sapiens, UniProt P25106); test: [3H]VUF15485 displacement, HEK293T membranes; format: binding; settings: for pIC50: 5 nM [3H]VUF15485, 25 °C, 2 h
[2] = target: T1, hACKR3 (atypical chemokine receptor 3; CXCR7); test: […]CXCL12 displacement, intact HEK293T cells; format: cell-based
[3] = target: T1, hACKR3 (atypical chemokine receptor 3; CXCR7); test: BRET beta-arrestin2 recruitment, HEK293T; format: cell-based
[4] = target: hACKR3 (atypical chemokine receptor 3; CXCR7) (Homo sapiens, UniProt P25106, Q301E); test: homologous [3H]VUF15485 competition binding, HEK293T membranes
Chain of hACKR3 (atypical chemokine receptor 3; CXCR7) (Homo sapiens, UniProt P25106, Q301E) (P25106 whole entry Q301E): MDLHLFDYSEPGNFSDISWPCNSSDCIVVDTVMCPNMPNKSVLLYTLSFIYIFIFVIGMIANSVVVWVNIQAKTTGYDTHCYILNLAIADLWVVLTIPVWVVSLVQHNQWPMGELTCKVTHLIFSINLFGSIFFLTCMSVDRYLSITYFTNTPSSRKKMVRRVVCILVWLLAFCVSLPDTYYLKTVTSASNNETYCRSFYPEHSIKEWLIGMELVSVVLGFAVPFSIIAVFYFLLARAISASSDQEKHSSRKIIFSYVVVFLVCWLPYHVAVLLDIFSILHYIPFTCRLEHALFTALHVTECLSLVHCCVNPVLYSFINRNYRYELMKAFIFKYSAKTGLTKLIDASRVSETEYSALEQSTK

[5] = target: T1, hACKR3 (atypical chemokine receptor 3; CXCR7); test: as above
[6] = target: hACKR3 (atypical chemokine receptor 3; CXCR7) (Homo sapiens, UniProt P25106, H121A); test: as above
Chain of hACKR3 (atypical chemokine receptor 3; CXCR7) (Homo sapiens, UniProt P25106, H121A) (P25106 whole entry H121A): as the sequence (P25106 whole entry Q301E) above, with H121A, E301Q counted along it

[7] = target: hACKR3 (atypical chemokine receptor 3; CXCR7) (Homo sapiens, UniProt P25106, D275N); test: as above
Chain of hACKR3 (atypical chemokine receptor 3; CXCR7) (Homo sapiens, UniProt P25106, D275N) (P25106 whole entry D275N): as the sequence (P25106 whole entry Q301E) above, with D275N, E301Q counted along it

mouse ACKR3 (mACKR3) = mouse ACKR3 (mACKR3) (Mus musculus, UniProt P56485); test: NanoBiT beta-arrestin2 recruitment, HEK293T; format: cell-based
Chain of mouse ACKR3 (mACKR3) (P56485 whole entry): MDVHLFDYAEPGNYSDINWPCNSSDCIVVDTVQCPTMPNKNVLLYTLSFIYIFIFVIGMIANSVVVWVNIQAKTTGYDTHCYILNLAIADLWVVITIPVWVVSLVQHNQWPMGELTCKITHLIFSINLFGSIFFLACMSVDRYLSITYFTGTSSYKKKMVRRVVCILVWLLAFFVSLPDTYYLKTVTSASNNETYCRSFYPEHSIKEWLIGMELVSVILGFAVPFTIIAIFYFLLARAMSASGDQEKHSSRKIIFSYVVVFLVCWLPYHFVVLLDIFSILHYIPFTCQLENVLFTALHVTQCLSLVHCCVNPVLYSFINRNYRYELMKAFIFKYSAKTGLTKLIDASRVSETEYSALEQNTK

[8] = target: T1, hACKR3 (atypical chemokine receptor 3; CXCR7); test: [3H]VUF15485 saturation binding, HEK293T membranes
[9] = target: hACKR3 (atypical chemokine receptor 3; CXCR7) (Homo sapiens, UniProt P25106, E213Q); test: homologous [3H]VUF15485 competition binding, HEK293T membranes
Chain of hACKR3 (atypical chemokine receptor 3; CXCR7) (Homo sapiens, UniProt P25106, E213Q) (P25106 whole entry E213Q): as the sequence (P25106 whole entry Q301E) above, with E213Q, E301Q counted along it

[10] = target: hACKR3 (atypical chemokine receptor 3; CXCR7) (Homo sapiens, UniProt P25106, V217A); test: as above
Chain of hACKR3 (atypical chemokine receptor 3; CXCR7) (Homo sapiens, UniProt P25106, V217A) (P25106 whole entry V217A): as the sequence (P25106 whole entry Q301E) above, with V217A, E301Q counted along it

[11] = target: hACKR3 (atypical chemokine receptor 3; CXCR7) (Homo sapiens, UniProt P25106, H298A); test: as above
Chain of hACKR3 (atypical chemokine receptor 3; CXCR7) (Homo sapiens, UniProt P25106, H298A) (P25106 whole entry H298A): as the sequence (P25106 whole entry Q301E) above, with H298A, E301Q counted along it

[12] = target: hACKR3 (atypical chemokine receptor 3; CXCR7) (Homo sapiens, UniProt P25106, Y51A); test: as above
Chain of hACKR3 (atypical chemokine receptor 3; CXCR7) (Homo sapiens, UniProt P25106, Y51A) (P25106 whole entry Y51A): as the sequence (P25106 whole entry Q301E) above, with Y51A, E301Q counted along it

[13] = target: hACKR3 (atypical chemokine receptor 3; CXCR7) (Homo sapiens, UniProt P25106, S103D); test: as above
Chain of hACKR3 (atypical chemokine receptor 3; CXCR7) (Homo sapiens, UniProt P25106, S103D) (P25106 whole entry S103D): as the sequence (P25106 whole entry Q301E) above, with S103D, E301Q counted along it

T1 sequence (P25106 whole entry): as the sequence (P25106 whole entry Q301E) above, with E301Q counted along it

Oc1ccc(CN2CCC(CNCc3ccccc3)CC2)cc1 [9 in Adlere et al., 2019, VUF16774]
IC50 [1]: 10 µM

CC1(C)[C@H]2CC=C(C[N+](C)(C)Cc3ccc(-c4ccccc4Br)cc3)[C@@H]1C2.[I-] [38 in Wijtmans et al., 2012b, VUF11222]
pIC50 [1]: 5.8 ± 0.2

CC1(C)[C@H]2CC=C(C[N+](C)(C)Cc3ccc(-c4ccccc4I)cc3)[C@@H]1C2.[I-] [39 in Wijtmans et al., 2012b, VUF11418]
pIC50 [1]: 5.9 ± 0.3

c1cc(CN2CCCNCCNCCCNCC2)ccc1CN1CCCNCCNCCCNCC1 [AMD3100]
IC50 [1]: ≥ 100 µM

CC1(C)CN2C(CS/C(=N\C3CCCCC3)NC3CCCCC3)=CSC2=N1 [IT1t]
IC50 [1]: ≥ 100 µM

COc1cc(C(=O)N(CCC2CCCN2C)C/C(C)=C/c2ccccc2F)cc(OC)c1OC (stereo not shown) [VUF11207]
IC50 [2]: 0.01 µM
EC50 [3]: 0.0316 µM

CCNC(=O)c1cnc(N2CCN(C3CCN(Cc4ccc(Cl)cc4)CC3)C(CC)C2)c(Cl)c1 (stereo not shown) [VUF11211]
pIC50 [1]: 4.7 ± 0.2

COc1cc(C(=O)N(CC[C@@H]2CCCN2C)C/C(C)=C/c2ccccc2F)cc(OC)c1OC [VUF13744]
IC50 [2]: 0.02 µM
EC50 [3]: 0.0398 µM

COc1cc(C(=O)N(CC[C@H]2CCCN2C)C/C(C)=C/c2ccccc2F)cc(OC)c1OC [VUF15485, (R,E)-N-(3-(2-fluorophenyl)-2-methylallyl)-3,4,5-trimethoxy-N-(2-(1-methylpyrrolidin-2-yl)ethyl)benzamide]
Ki [4]: 0.017 µM
Ki [5]: 0.0245 µM
Ki [6]: 0.055 µM
Ki [7]: 0.0186 µM
EC50 (mouse ACKR3 (mACKR3)): 0.02 µM
IC50 [2]: 0.00501 µM
Kd [8]: 0.016 ± 0.0024 µM
Ki [9]: 0.0105 µM
Ki [10]: 0.038 µM
Ki [11]: 0.0447 µM
Ki [12]: 0.049 µM
EC50 [3]: 0.0251 µM
Ki [13]: 0.0955 µM

VUF10990 [10q in Wijtmans et al., 2011]
pIC50 [1]: 5.9 ± 0.1

VUF11403 [30 in Wijtmans et al., 2012a]
pIC50 [1]: 7.9 ± 0.1

VUF16545 [1 in Uto-Konimi et al., 2013]
pIC50 [1]: 7.8 ± 0.1

VUF16771 [28 in Adlere et al., 2019]
pIC50 [1]: 5.8 ± 0.1

VUF16779 [22 in Adlere et al., 2019]
pIC50 [1]: 6.0 ± 0.1
